From patent US11491165B2 (Kinoxis Therapeutics Pty Ltd, priority 2016, dated 2022)

Key:
[1] = target: T1, vasopressin 1a receptor (V1aR) (Homo sapiens, UniProt P37288); experiment: IP1 accumulation assay, V1aR-expressing HEK-293 cells (agonist and antagonist assessment); type: cell-based; details: for EC50: agonist assessment, IP1, 1 h; for IC50: antagonist assessment vs AVP 25 nM (~EC70), IP1
T1 construct: expressed in transfected cells
Description: Cells were subsequently maintained in 10% DMEM containing hygromycin (80 μg/ml), penicillin (100 U/ml), streptomycin (0.1 mg/ml) and blasticidine S hydrochloride (15 μg/ml).
Cells were incubated in tetracycline (2 μg/mL) for 48 h to induce receptor expression. Intracellular IP1 levels induced by activation of the Gq protein coupled to the OTR and V1aR was indexed using the HTRF IP-One kit (CisBio International, Bedford, Mass., USA), according to manufacturer's protocol. For agonist assessment, cells were incubated with logarithmically-spaced concentrations of compounds (1 nM-100 μM) for 1 h prior to the addition of Ab-Cryptate and IP1-d2 for 1 h. The contents of each well were transferred to a white-walled proxy plate (Perkin Elmer) and fluorescence read using a Pherastar Microplate reader (BMG Labtech, Cary, N.C., USA). […] IP1 levels in the presence of compounds and OT or AVP were expressed as a percentage of levels seen with OT or AVP in the presence of vehicle control. Concentration response curves for OT and AVP were determined after 5 min incubation in drug or vehicle, and the data fitted using GraphPad PRISM to a 4-parameter logistic equation of the form y=Min+(Max−Min)/(1+10^((logEC50−X)*n)) where X is drug concentration and n is the H-ill slope. Data represent the mean±s.d. of at least 3 independent experiments, each in duplicate.

[2] = test system: BALB/c mice; experiment: Murine social interaction test; type: in vivo, Mus musculus; details: male BALB/c mice, i.p., 10 min test 30 min after injection
Description: Example Testing Effect of WJ0679 on Murine Social Interaction (N=46)
Age: 6-7 weeks at testing
Vehicle: 88% isotonic saline, 10% DMSO, 2% tween 80
Route of administration: intraperitoneal (i.p.) injection
Mice were placed in the arena (40×40×40 cm) in weight and treatment matched pairs of unfamiliar mice for a 10 min test session, commencing 30 min after receiving their i.p. injection. The variables of interest were the time the mice spent in close physical contact with each other and the time each mouse spent engaged in active social investigation (sniffing the other mouse).

[3] = target: T2, oxytocin receptor (OXTR), hOTR (Homo sapiens, UniProt P30559); experiment: Competition radioligand binding, [3H]-oxytocin, OTR-expressing HEK293 membranes; details: [3H]-oxytocin 10 nM, 90 min 4 °C
T2 construct: expressed in transfected cells
T2 sequence (P30559 1-389): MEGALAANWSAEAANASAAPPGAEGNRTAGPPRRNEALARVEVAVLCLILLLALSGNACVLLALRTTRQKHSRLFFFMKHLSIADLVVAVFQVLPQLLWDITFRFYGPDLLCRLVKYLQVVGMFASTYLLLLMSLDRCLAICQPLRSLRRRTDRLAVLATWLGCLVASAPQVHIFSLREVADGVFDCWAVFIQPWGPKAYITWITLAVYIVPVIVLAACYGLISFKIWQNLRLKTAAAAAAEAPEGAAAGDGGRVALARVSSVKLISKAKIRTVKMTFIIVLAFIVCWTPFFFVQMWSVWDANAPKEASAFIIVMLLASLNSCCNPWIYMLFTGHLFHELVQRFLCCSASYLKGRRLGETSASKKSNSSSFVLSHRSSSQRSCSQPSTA
Description: (§1) Human embryonic kidney cells (HEK-293) transfected to stably express untagged hOTR and V1aR using the Flp-In™ T-REx™ system (Life Technologies, Carlsbad, Calif. USA) were established as reported in Jorgensen et al., 2016 (the entire disclosure of which is hereby incorporated by reference). Cells were subsequently maintained in 10% DMEM containing hygromycin (80 μg/ml), penicillin (100 U/ml), streptomycin (0.1 mg/ml) and blasticidine S hydrochloride (15 μg/ml).
(§2) To induce receptor expression, cells were incubated with tetracycline (2 μg/mL) for 48 h. PBS with 5 mM EDTA (pH 7.4) was used to detach OTR and V1aR-expressing HEK293 cells from culture flasks. Harvested cells were centrifuged at 1200 g for 5 min and were resuspended in homogenization buffer (50 mM HEPES, 5 mM EDTA, 5 mM MgCl2; pH 7.4) prior to homogenization using an Ultra-Turrax homogeniser (IKA, Wilmington, N.C., USA). Homogenates were centrifuged three times for 30 min at 48.000 g, 4° C. for 30 min and membrane pellets resuspended in 50 mM Tris HCl, 5 mM MgCl2 (pH 7.4). A bicinchoninic acid assay was used according to the manufacturer's protocol (Bio-Rad, Hercules. Calif., USA) to measure final protein concentration. Membranes were stored at −80° C. until use in competition radioligand binding studies.
(§3) Reactions were incubated for 90 min at 4° C. to reach equilibrium, and terminated by rapid filtration over glass fibre filters (Whatman GF/A […]; Millipore, Darmstadt, Germany), and washing with ice-cold reaction buffer. Filters were dried, then incubated with Microscint 0 (Perkin Elmer) for 30 min before radioactivity was detected with a Microbeta2 2450 microplate-reader (Perkin Elmer). […] Specific binding in the presence of compounds was expressed as a percentage of specific binding in the presence of vehicle control. A sum-of-squares F-test was used to compare the goodness of fit of one-site, two-site and sigmoidal with variable hill slope binding models, and to calculate Ki's using Graphpad Prism (Graphpad Software, La Jolla, Calif., USA).

[4] = target: T2, oxytocin receptor (OXTR), hOTR; experiment: IP1 accumulation assay, OTR-expressing HEK-293 cells (agonist and antagonist assessment); type: cell-based; details: for Emax: HEK293, read-out: OXTR Emax (% OXT); for EC50 (OXTR agonist potency, mean ± s.d.) / EC50: agonist assessment; for EC50 (OXTR agonist potency, mean ± s.d.) / IC50: IP1; for EC50: IP1, 1 h; for OV function: ratio of OXTR functional potency to V1aR functional potency, 'OT only' = function at OXTR only; for IC50: antagonist assessment vs OT 30 nM (~EC70)
In short: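 Flp-In T-REx HEK-293 cells stably expressing untagged hOTR were induced with tetracycline for 48 h, then exposed 1 h to compound (1 nM-100 μM) alone (agonist mode) or with 30 nM OT (~EC70; antagonist mode). IP1 was measured by HTRF, expressed as % of OT-plus-vehicle and fitted to a 4-parameter logistic curve; n≥3 experiments in duplicate.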

[5] = target: T1, vasopressin 1a receptor (V1aR); experiment: Competition radioligand binding, [3H]-vasopressin, V1aR-expressing HEK293 membranes; details: [3H]-vasopressin 2 nM, 90 min 4 °C
Description: as §1, §2, §3

T1 sequence (P37288 whole entry): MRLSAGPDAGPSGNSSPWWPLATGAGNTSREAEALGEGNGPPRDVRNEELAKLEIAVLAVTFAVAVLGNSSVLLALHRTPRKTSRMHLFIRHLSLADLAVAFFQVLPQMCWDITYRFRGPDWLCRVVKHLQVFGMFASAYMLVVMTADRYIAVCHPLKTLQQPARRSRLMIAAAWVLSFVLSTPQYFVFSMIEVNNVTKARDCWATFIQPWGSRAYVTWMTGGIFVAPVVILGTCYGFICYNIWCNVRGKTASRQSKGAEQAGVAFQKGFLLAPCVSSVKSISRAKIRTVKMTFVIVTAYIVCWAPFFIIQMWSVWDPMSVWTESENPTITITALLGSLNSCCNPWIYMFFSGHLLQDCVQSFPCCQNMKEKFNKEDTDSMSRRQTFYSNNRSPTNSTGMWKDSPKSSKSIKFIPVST

EC50 [1] [µM]	IC50 [1] [µM]	Ki [3] [µM]	melting point	Emax [4] [%]	EC50 (OXTR agonist potency, mean ± s.d.) [4] [µM]	EC50 [4] [µM]	OV function [4]	Ki [5] [µM]	IC50 [4] [µM]	SMILES	time spent in close physical contact (huddling time) ([2]; all doses (1, 5, 20 mg/kg), most pronounced at 1 and 5 mg/kg, FIG. 1)	active social investigation time ([2]; doses of 1 and 20 mg/kg, FIG. 2)
> 10	2.2 ± 0.511	0.422 ± 0.129	286 to 288 °C (dec.)	12.6	0.316 ± 0.108	0.406 ± 0.074	0.18	0.105 ± 0.0105	–	Cn1ncc2c1Nc1ccccc1N(C(=O)c1cccc(F)c1)C2 [WJ0679, (3-Fluorophenyl)(1-methyl-4,10-dihydrobenzo[b]pyrazolo[3,4-e][1,4]diazepin-5 (1H)-yl)methanone]	significantly increased	significantly increased
> 10	> 10	> 10	247 to 249 °C (dec.)	9.67	0.2421 ± 0.0217	3.53 ± 0.634	–	0.353	> 10	Cn1ncc2c1Nc1ccccc1N(C(=O)c1cccnc1)C2 [WJ0753, (1-Methyl-4,10-dihydrobenzo[b]pyrazolo[3,4-e][1,4]diazepin-5 (1H)-yl)(pyridin-3-yl)methanone]	–	–
> 10	1.67 ± 0.299	0.519 ± 0.11	243 to 246 °C	10.2	0.255 ± 0.0597	0.152 ± 0.0473	0.09	0.174 ± 0.0574	–	Cn1ncc2c1Nc1ccccc1N(C(=O)c1ccc(Cl)cc1)C2 [WJ0755, (4-Chlorophenyl)(1-methyl-4,10-dihydrobenzo[b]pyrazolo[3,4-e][1,4]diazepin-5 (1H)-yl)methanone]	–	–
> 10	> 10	> 10	267 to 269 °C (dec.)	–	–	> 10	–	0.751 ± 0.197	> 10	Cn1ncc2c1Nc1ccccc1N(C(=O)c1ccncc1)C2 [WJ0757, (1-Methyl-4,10-dihydrobenzo[b]pyrazolo[3,4-e][1,4]diazepin-5 (1H)-yl)(pyridin-4-yl)methanone]	–	–
> 10	> 10	> 10	269 to 271 °C (dec.)	–	–	> 10	–	1.12 ± 0.26	> 10	Cn1ncc2c1Nc1ccccc1N(C(=O)c1ccccn1)C2 [WJ0759, (1-Methyl-4,10-dihydrobenzo[b]pyrazolo[3,4-e][1,4]diazepin-5 (1H)-yl)(pyridin-2-yl)methanone]	–	–
> 10	> 10	> 10	262 to 264 °C (dec.)	26.7	0.6677	4.15 ± 1.34	–	2.21	–	Cn1ncc2c1Nc1ccccc1N(C(=O)C13CC4CC(F)(CC(F)(C4)C1)C3)C2 [WJ0807dF, ((1r,3R,5S,7r)-3,5-Difluoroadamantan-1-yl)(1-methyl-4,10-dihydrobenzo[b]pyrazolo[3,4-e][1,4]diazepin-5 (1H)-yl)methanone]	–	–
> 10	> 10	> 10	266 to 268 °C (dec.)	25.3	0.6325 ± 0.148	2.4 ± 0.652	–	1.09 ± 0.0583	–	Cn1ncc2c1Nc1ccccc1N(C(=O)C13CC4CC(CC(F)(C4)C1)C3)C2 [WJ0807mF, ((1r,3s,5R,7S)-3-Fluoroadamantan-1-yl)(1-methyl-4,10-dihydrobenzo[b]pyrazolo[3,4-e][1,4]diazepin-5 (1H)-yl)methanone]	–	–
> 10	0.346 ± 0.0909	0.117 ± 0.0124	254 to 256 °C (dec.)	5.87	0.147 ± 0.0643	0.109 ± 0.0177	0.37	0.014 ± 0.002	–	Cc1ccc(C(=O)N2Cc3cnn(C)c3Nc3ccccc32)cc1C [WJ5103, (3,4-Dimethylphenyl)(1-methyl-4,10-dihydrobenzo[b]pyrazolo[3,4-e][1,4]diazepin-5 (1H)-yl)methanone]	–	–
> 10	> 10	> 10	171 to 173 °C	–	–	> 10	–	> 10	> 10	Cc1ccc(CN2Cc3cnn(C)c3Nc3ccccc32)cc1C [WJ05105, 5-(3,4-Dimethylbenzyl)-1-methyl-1,4,5,10-tetrahydrobenzo[b]pyrazolo[3,4-e][1,4]diazepine]	–	–
> 10	> 10	4.07 ± 1.22	235 to 238 °C	–	–	> 10	–	0.924	> 10	Cc1ccc2c(c1)N(C(=O)c1ccccc1)Cc1cnn(C)c1N2 [WJ07117Me, (1,7-Dimethyl-4,10-dihydrobenzo[b]pyrazolo[3,4-e][1,4]diazepin-5 (1H)-yl)(phenyl)methanone]	–	–
> 10	> 10	> 10	248 to 250 °C	–	–	> 10	–	0.374	> 10	COc1ccc2c(c1)N(C(=O)c1ccccc1)Cc1cnn(C)c1N2 [WJ07117MeO, (7-Methoxy-1-methyl-4,10-dihydrobenzo[b]pyrazolo[3,4-e][1,4]diazepin-5 (1H)-yl)(phenyl)methanone]	–	–
